From patent US6432671B1 (priority 1996, dated 2002)

Tested on: tryparedoxin I
Format: biochemical, Crithidia fasciculata

Question: `CCN1C(=O)C=CC1=O` [NEM, N-ethylmaleimide] was tested. Which “residual activity [%]” value did it give?
Answer: 24 ± 5%
